Measured values: patent US20190175766A1, “STABILIZED CROSSLINKED NANOBUBBLES FOR DIAGNOSTIC AND THERAPEUTIC APPLICATIONS” (CASE WESTERN RESERVE UNIVERSITY, priority 2016, published 2019)

Columns and labels:
[1] = tested on: LS174T cell line; assay: Cell toxicity test (WST-1); format: cell-based, human
Description: LS174-T human colorectal adenocarcinoma cells (ATCC, Manassas, Va.) were cultured in complete MEM medium (10% fetal bovine serum, 1% penicillin-streptomycin; Invitrogen, Carlsbad, Calif.) and placed in a humidified atmosphere at 37° C. and 5% CO2. Cells were passaged until they were 90% confluent, then detached with 0.25% trypsin-EDTA (Invitrogen, Carlsbad, Calif.).
One day prior to the treatment, cells were passaged at confluence and plated in flat bottom, clear, cell culture treated 96-well plates (Falcon, Franklin Lakes, N.J.) using a cell density of 2.5×10^4 cells/ml, 100 ul for each well overnight. After 24 h of incubation, the surface medium were aspirated carefully and cells were treated for 3 h as following groups: • 1 No treat Incomplete MEM medium were added. • 2. Dox 1 μg/ml Doxorubicin in incomplete MEM medium were added. • 3. Dox-NB 2000 times diluted original Dox-NB in incomplete MEM medium were added. • 4. […]
Plate wells were filled with relevant treatment medium, sealed with Parafilm® M (Fisher Scientific; Pittsburgh, Pa.), then inverted the plate to ensure the cells contact with Dox-NB for 20 min. […] After that, 1:10 diluted solution of WST-1 reagent ( ) replaced the medium and incubated for 1 h and then the plate was scanned with a TECAN plate reader (infinite M200, San Jose, Calif.) at 450 nm.

[2] = tested on: LS174-T cells; assay: Measurement of intracellular drug uptake; format: cell-based, human; conditions: with and without TUS
Description: LS174-T cells were grown in a 12-well cell culture plate at a cell concentration of 2.5×10^4 cells/ml one day before the treatment. The treatment groups were the same as cell toxicity test above. After 2 h treatment in incubator, the drugs were aspirated and washed with sterile PBS 3 times. The attached cells were fixed with 3% formaldehyde solution for 10 min. After 3 times wash with PBS, the cells of different treatment groups were imaged at 5× and 20× on the Zeiss Axio Observer Z1 motorized FL microscope with the same parameter and scanned zones. Average Dox fluorescence of cells in different treatment groups was calculated by ImageJ.

In the case of `COc1cccc2c1C(=O)c1c(O)c3c(c(O)c1C2=O)C[C@@](O)(C(=O)CO)C[C@@H]3O[C@H]1C[C@H](N)[C@H](O)[C@H](C)O1` [Dox, Doxorubicin], the “Fluorescence value (cell viability test)” value ([1]; plus therapeutic ultrasound (TUS) 3 MHz, 2 W/cm2, 1 min) was 0.28 ± 0.06, the “Fluorescence value (cell viability test)” value ([1]; without TUS, Dox 1 μg/ml, Dox-NB 2000 times diluted) was 0.36 ± 0.10 and the “location of Dox in treated cells” value [2] was “mainly located in nuclei”.
